pKi: −log10 of the molar value. Read-outs that look alike come from different tables or passages of the source.
Target: human full length sortilin (Homo sapiens (Human), UniProt Q99523)
Test: Human sortilin neurotensin scintillation proximity (SPA) binding assay
Conditions: for IC50: 150 nM His-tagged human full length sortilin, SPA
Description: NTS, which is a 13 amino acid neuropeptide, is a sortilin ligand. The IC50 is a measure of the amount of the compound required to inhibit the binding of NTS to sortilin by 50%. The skilled person will recognise that the lower the IC50 value, the less of the compound needed to achieve the desired effect, and as a result, the chances of undesirable off-target effects are reduced.
The compound affinity was determined by measuring the inhibition of ^3H-neurotensin and/or ^125I-neurotensin binding to human full length sortilin using a Scintillation Proximity Assay (SPA) format.
The human sortilin SPA binding assay was performed in a total volume of 40 μl in 50 mM HEPES pH 7.4 assay buffer containing 100 mM NaCl, 2.0 mM CaCl2, 0.1% (v:v) BSA and 0.1% (v:v)Tween-20. Varying concentration of test compounds where pre-incubated for 30 min at RT with 150 nM of c-terminal hexahistidine- human full length Sortilin (RD Systems). […] 0.1 mg PVT copper HIS-tag imaging beads (Perkin Elmer) was added and the plate was agitated at 400 rpm in the dark for 1 hr. The SPA beads were allowed a minimum 2 hours settling time before the plate was read on a Hidex Sense 425-301 scintillation reader with a 45 sec exposure time. Concentration-response evaluation of test compounds was performed with 8 different concentrations of compound (covering 3 decades). […] The compound potency results were converted to inhibition constant Ki values (nM) derived from calculated IC50 values converted to Ki values using the Cheng-Prusoff equation (Ki=IC50/(I+(L/Kd))).

[1] = 5 nM [3H]-Neurotensin radioligand, read-out: hSortilin NTS Binding IC50 (nM) [3H] neurotensin

Chain of human full length sortilin (Q99523 78-755): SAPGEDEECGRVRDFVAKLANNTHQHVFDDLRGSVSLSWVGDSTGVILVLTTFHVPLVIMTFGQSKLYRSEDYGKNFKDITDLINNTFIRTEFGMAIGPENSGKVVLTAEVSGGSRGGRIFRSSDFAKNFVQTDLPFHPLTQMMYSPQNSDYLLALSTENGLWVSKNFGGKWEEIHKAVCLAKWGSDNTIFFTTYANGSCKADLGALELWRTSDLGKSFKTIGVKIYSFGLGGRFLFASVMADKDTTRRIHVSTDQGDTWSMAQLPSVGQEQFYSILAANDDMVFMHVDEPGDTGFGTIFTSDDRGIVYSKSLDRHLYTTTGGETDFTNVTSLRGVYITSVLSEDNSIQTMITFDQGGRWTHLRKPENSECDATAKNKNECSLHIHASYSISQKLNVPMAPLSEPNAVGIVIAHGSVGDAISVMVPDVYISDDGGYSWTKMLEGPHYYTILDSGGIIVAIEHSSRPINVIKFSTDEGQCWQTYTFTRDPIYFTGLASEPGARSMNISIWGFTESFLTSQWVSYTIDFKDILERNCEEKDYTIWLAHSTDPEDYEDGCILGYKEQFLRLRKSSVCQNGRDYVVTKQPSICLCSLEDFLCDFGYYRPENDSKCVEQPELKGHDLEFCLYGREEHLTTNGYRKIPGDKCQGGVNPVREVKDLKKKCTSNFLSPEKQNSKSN

| IC50 (0.35 nM [125I]-Neurotensin radioligand, read-out: hSortilin NTS binding IC50 (nM) [125I] neurotensin) [nM] | IC50 [1] [nM] | pKi (derived from IC50 using the Cheng-Prusoff equation, Kd of neurotensin […], read-out: hSortilin Ki) | Structure (SMILES) |
| --- | --- | --- | --- |
| 105 | 60 |  | O=C(O)c1cc(C(F)(F)F)ccc1C(=O)Nc1ccc2c(n1)COCC2 [Example 2, 2-({5H,6H,8H-pyrano[3,4-b]pyridin-2-yl}carbamoyl)-5-(trifluoromethyl)benzoic acid] |
|  | 340 | 6.47 | O=C(O)c1cc(C(F)(F)F)ccc1C(=O)Nc1cccc(CO)n1 [Example 3, 2-{[6-(hydroxymethyl)pyridin-2-yl]carbamoyl}-5-(trifluoromethyl)benzoic acid] |
|  | 725 |  | COCc1cccc(NC(=O)c2ccc(C(F)(F)F)cc2C(=O)O)n1 [Example 24, 2-{[6-(methoxymethyl)pyridin-2-yl]carbamoyl}-5-(trifluoromethyl)benzoic acid] |
